Reference: paper PMC8911944, “Screening of Natural Products Inhibitors of SARS-CoV-2 Entry” (Molecules, 2022)
Values after ≈ are worked out from the molar mass of the structure shown.

System: pseudotyped virus carrying the vesicular stomatitis virus glycoprotein G (VSV-G)
Experiment: not given
Format: cell-based
Conditions: not given

Molecule	inhibitory activity against the entry of the VSV-G-pseudotyped virus
C=C1CC/C=C(\C)CC[C@@H]2[C@@H]1CC2(C)C [β-Caryophyllene]	low inhibitory activity

System: not listed separately
Experiment: Cytotoxicity assay, resazurin method
Format: cell-based
Conditions: human, HEK293T-ACE2 cells, HEK-293T ACE2 cells, unit inferred
Protocol: (§1) The maximum non-toxic concentration was assessed using the resazurin method. Briefly, HEK293T-ACE2 cells were cultured at 1 × 10^4 cells/well in a 96-well plate in the presence of different concentrations of the natural products. Vehicle (DMSO)-treated cells were used as a control and normalizer. Resazurin was added 48 h later, and after 3 h, cell viability was determined. Absorbance was measured on the MultiskanTM GO (ThermoScientific, Waltham, MA, USA) at 570 and 630 nm. The MNTC is the maximum concentration with a cytotoxicity lower than 10%.

Molecule	CC50 at 48 h
C=C1CC/C=C(\C)CC[C@@H]2[C@@H]1CC2(C)C [β-Caryophyllene]	183 µg/mL (≈ 896 µM)

System: HEK293T-ACE2 cells
Experiment: Cytotoxicity assay, resazurin method
Format: cell-based
Conditions: maximum concentration with cytotoxicity lower than 10%
Protocol: as §1

Molecule	MNTC (maximum non-toxic concentration)
CC1=C[C@H](O)[C@H]2C[C@@H]1C2(C)C (relative stereo) [cis-Verbenol]	250 µg/mL
C/C=C/[C@H]1OC(=O)C=C[C@H]1OC(C)=O [Acetylphomolactone]	4.5 µg/mL
CC(=O)OC1C=CC(=O)OC1C1OC1C (centres unmarked) [Asperline]	7.81 µg/mL
CC(=O)C1COC(O)C1C (centres unmarked) [Botryodiplodin]	3 µg/mL
C=C1CC[C@H]2O[C@]2(C)CC[C@@H]2[C@@H]1CC2(C)C [Caryophyllene Oxide]	31.25 µg/mL
C[C@H]1CC[C@@H](C(C)(C)O)CC2=C1CC[C@@H]2C [Guaiol]	33.3 µg/mL
C=CC(C)(O)CCC=C(C)C (centres unmarked) [Linalool]	125 µg/mL
CC(O)[C@@H]1NC(=O)c2cccn2C1=O (some centres unmarked) [Macrophominol]	36 µg/mL
C=C(C)[C@H]1CC=C(C)CC1 [R-Limonene]	31.25 µg/mL
C=C1CC/C=C(\C)CC[C@@H]2[C@@H]1CC2(C)C [β-Caryophyllene]	125 µg/mL
Isoasperline	7.19 µg/mL
S-Limonene	31.25 µg/mL
